In patent publication US7812042B2, “Pharmaceutical compositions and therapeutic applications for the use of a novel vitamin B12 derivative, N-acetyl-L-cysteinylcobalamin” (priority 2006, dated 2010):
“And” between values parts separate entries of the source, which are not always exact repeats. Equal values may be shown once. Where a name gives a salt, the structure may show the parent alone.

Key:
Hsp70 = settings: SK-HEP-1; homocysteine 30 μM, folate 30 μM (2 hr), quercitin 15 μM
Experimental: (§1) Cells were plated into 6-, 12-, or 24-well cell culture clusters, at 2×10^3, 2×10^5, or 1×10^5 cells per well and incubated until 90% confluent. Treatments were applied as above.
(§2) Following incubation, cells were subjected to mRNA extraction followed by cDNA synthesis for each sample under test. Polymerase chain reaction cDNA templates were prepared for simplex PCR protocol. PCR products were then visualized using a UV Transilluminator and images captured using a Kodak ID gel imaging system. Densitometry and statistical analysis was then performed on each gene expression band image using PSP® v 10.0 running under Windows XP®.
(§3) mRNA extraction was performed using the Quickprep micro mRNA Purification Kit. Following incubation of cells post-treatment, the media was removed from the cells, adherent cells were re-suspended in 0.4 ml extraction buffer and 0.8 ml elution buffer at 65° C. was added.
A reaction mixture was prepared in individual microcentrifuge tubes containing 2 cDNA synthesis beads, 32 μl of the mRNA solution and 1 μl of pd(N)6. This mixture was incubated at 37° C. in a water bath for 60 minutes. After incubation, 27 μl of RNase-free DEPC treated water was added to each tube to make a total volume 60 μl. cDNA samples were prepared in duplicate. Sample 1 was used immediately in RT-PCR protocol.
Microcentrifuge tubes from puReTaq™Ready-To-Go™ PCR Beads containing one PCR bead were labeled for each sample required. Added to the PCR bead were 17 μl of RNase-free DEPC treated water, 1 μl sense primer, 1 μl anti-sense primer and 5 μl of the cDNA solution. RT-PCR conditions were as follows: Hsp70 and β-actin, pre-treatment step, 94° C. for 1 minute, followed by denaturing at 92° C. for 1 minute, annealing at 60° C. for 1 minute and extension at 72° C. for 1 minute. Total cycles, 30, post-treatment was then carried out at 72° C. for 10 minutes. […]
The size of the PCR products was determined by comparison to DNA fragments of a well-defined size; therefore, 5 μl of the DNA Ladder was carefully pipetted into the first well of the gel. […]

SK-HEP-1 cells [1] = assay: NACCbl protection from homocysteine with Hsp32/Hsp70 inhibited by Sn(IX) protoporphyrin, quercitin or siRNA (MTS assay); format: cell-based, Human; settings: where named, NACCbl 30 μM pre-treatment two hours with/without Sn(IX)PP, quercetin, replicates 1-6, listed as Hcy
From the text: siRNAs for human HO-1 were synthesised in 2′-deprotected, duplexed, desalted and purified form by Dharmacon Research Inc., published sequences from Zhang et al., (Zhang, Shan et al. 2004). Human Hsp70 primers were from proprietary sequences, and all control non-targeting primer sequences were also synthesised by Dharmacon Research Inc.
Transfection was optimised using a standard siControl Tox protocol. All transfection experiments included non-targeted siRNA.
Cells were trypsinized and plated into 12- or 96-well plates at cell density of 2×10^5, then incubated for 24 hours until adherent. Complexed siRNA and transfection agent at 100 nm was added directly to each experimental well. Plates were incubated at 37° C. for 32.5 hours for mRNA gene analysis experiments or 72 hours for protein analysis by Western Blot.
Complexed siRNA and transfection agent was added to each well of either 12- or 96-well plates. Cells were then trypsinized and added directly into each test well at cell density of 2×10^5. Plates were incubated at 37° C. for 32.5 hours for mRNA gene analysis experiments or 72 hours for protein analysis by Western Blot.
Hsp32 was inhibited using either Sn (IX) protoporhyrin or using an siRNA which specifically knocks out Hsp32. Hsp70 was inhibited using quercitin or using an siRNA which specifically knocks out Hsp70. In addition, two methods were used to inhibit both Hsp32 and Hsp70: chemically Sn (IX) protoporphyrin plus quercitin was used; and then, directly, a combination of the siRNA for both genes was used simultaneously.

Hsp32 = Hsp32 gene expression in SK-HEP-1 cells (RT-PCR, densitometry); format: cell-based, Human; settings: homocysteine 30 μM, folate 30 μM (2 hr), Sn(IX) protoporphyrin 25 μM, quercitin 15 μM
Experimental: as §1, §2, §3
A reaction mixture was prepared in individual microcentrifuge tubes containing 2 cDNA synthesis beads, 32 μl of the mRNA solution and 1 μl of pd(N)6. This mixture was incubated at 37° C. in a water bath for 60 minutes. After incubation, 27 μl of RNase-free DEPC treated water was added to each tube to make a total volume 60 μl. cDNA samples were prepared in duplicate. Sample 1 was used immediately in RT-PCR protocol. Sample 2 was prepared for qPCR protocol by the addition of 150 μl of 95% ice-cold ethanol and stored at −20° C.
Microcentrifuge tubes from puReTaq™Ready-To-Go™ PCR Beads containing one PCR bead were labeled for each sample required. Added to the PCR bead were 17 μl of RNase-free DEPC treated water, 1 μl sense primer, 1 μl anti-sense primer and 5 μl of the cDNA solution. RT-PCR conditions were as follows: Hsp70 and β-actin, pre-treatment step, 94° C. for 1 minute, followed by denaturing at 92° C. for 1 minute, annealing at 60° C. for 1 minute and extension at 72° C. for 1 minute. Total cycles, 30, post-treatment was then carried out at 72° C. for 10 minutes. For Hsp32, pre-treatment step, 95° C. for 2 minutes, followed by denaturing at 94° C. for 30 seconds, annealing at 58° C. for 1 minute and extension at 72° C. for 1 minute. Total cycles 45, post treatment was then carried out at 72° C. for 10 minutes. Following RT-PCR, samples were stored at −20° C.
Amplification products were separated on a 1.8% agarose gel (m/v) in TAE buffer. The size of the PCR products was determined by comparison to DNA fragments of a well-defined size; therefore, 5 μl of the DNA Ladder was carefully pipetted into the first well of the gel. Successive 10 μl of each PCR sample was then pipetted into subsequent wells on the agarose gel. The gel was connected to the Power Pack and run at 100V for 30 minutes.
Gels were visualised on a UV Transilluminator. Photographs were stored using a Kodak Digital camera system fitted with a UV filter set connected to a PC. Images were then transferred to the Kodak ID gel imaging system. Densitometry was performed on each gene expression band using PSP™ v10 running under Windows XP®.
Experiments were conducted using Hsp32 and Hsp 70 gene expression as the basis for study. […] (all treatments for 2 hours).

SK-HEP-1 cells [2] = settings: human, 2 h
Experimental: Cell viability was determined by MTS® assay. […] Cell viability was determined by MTS® assay.

SK-HEP-1 cells [3] = assay: Protection of endothelial cells from homocysteine-induced cell death (MTS assay, absorbance at 490 nm; includes comparison of NACCbl, NAC, cyanocobalamin+NAC, free thiols, other cobalamins, folate); format: cell-based, Human; settings: for Absorbance at 490 nm (n = 6): replicates Y1-Y6, listed as Hcy
Experimental: The effect of a constant concentration of NACCbl and GSCbl to protect cells against variable concentrations of homocysteine was assessed. […] Cell viability was determined by MTS® assay. Data shown in FIG. 4 are representative of means ±SE of 6 independent samples. FIG. 4 illustrates that NACCbl (▪) and GSCbl (▴) protect endothelial cells from the effect of homocysteine. […] Cell viability was determined by MTS® assay. […] There was a decrease in protection as homocysteine concentration increased, but there was still ˜60% survival at 50 μM homocysteine.
The data was normalized (log 2 and log 10) as shown in FIGS. 16 and 17 and Tables 16 and 17, respectively, below.

SK-HEP-1 cells [4] = assay: Protection from apoptosis induced by homocysteine (Caspase-3 activity); format: cell-based, Human; settings: 30 μM pre-treatment two hours, then 30 μM homocysteine two hours
Experimental: Caspase 3 is activated when cells undergo apoptosis. Caspase-3 assay is a standard for apoptosis assay. Homocysteine is a known inducer of apoptosis. Cells were cultured in 96-well plates for 24 hours and then treated with reagents under test conditions. Cytotoxic agents, H2O2 and etoposide were added to negative control wells. The assay was performed according to the manufacturer's protocol, as follows: Cells were re-suspended in 100 μl of clear media and 50 μl of Caspase-3 substrate solution was immediately added to each test well. […] Cell viability was determined by MTS® assay. […] Cell viability was determined by MTS® assay.

methionine synthase = molecular target: T1, methionine synthase (Oryctolagus cuniculus, UniProt G1SXW3); settings: rabbit spleen extracts; cited from earlier work
T1 construct: methionine synthase activity in rabbit spleen extracts; from tissue; host or cells: rabbit spleen extracts
T1 sequence (G1SXW3 1-1218): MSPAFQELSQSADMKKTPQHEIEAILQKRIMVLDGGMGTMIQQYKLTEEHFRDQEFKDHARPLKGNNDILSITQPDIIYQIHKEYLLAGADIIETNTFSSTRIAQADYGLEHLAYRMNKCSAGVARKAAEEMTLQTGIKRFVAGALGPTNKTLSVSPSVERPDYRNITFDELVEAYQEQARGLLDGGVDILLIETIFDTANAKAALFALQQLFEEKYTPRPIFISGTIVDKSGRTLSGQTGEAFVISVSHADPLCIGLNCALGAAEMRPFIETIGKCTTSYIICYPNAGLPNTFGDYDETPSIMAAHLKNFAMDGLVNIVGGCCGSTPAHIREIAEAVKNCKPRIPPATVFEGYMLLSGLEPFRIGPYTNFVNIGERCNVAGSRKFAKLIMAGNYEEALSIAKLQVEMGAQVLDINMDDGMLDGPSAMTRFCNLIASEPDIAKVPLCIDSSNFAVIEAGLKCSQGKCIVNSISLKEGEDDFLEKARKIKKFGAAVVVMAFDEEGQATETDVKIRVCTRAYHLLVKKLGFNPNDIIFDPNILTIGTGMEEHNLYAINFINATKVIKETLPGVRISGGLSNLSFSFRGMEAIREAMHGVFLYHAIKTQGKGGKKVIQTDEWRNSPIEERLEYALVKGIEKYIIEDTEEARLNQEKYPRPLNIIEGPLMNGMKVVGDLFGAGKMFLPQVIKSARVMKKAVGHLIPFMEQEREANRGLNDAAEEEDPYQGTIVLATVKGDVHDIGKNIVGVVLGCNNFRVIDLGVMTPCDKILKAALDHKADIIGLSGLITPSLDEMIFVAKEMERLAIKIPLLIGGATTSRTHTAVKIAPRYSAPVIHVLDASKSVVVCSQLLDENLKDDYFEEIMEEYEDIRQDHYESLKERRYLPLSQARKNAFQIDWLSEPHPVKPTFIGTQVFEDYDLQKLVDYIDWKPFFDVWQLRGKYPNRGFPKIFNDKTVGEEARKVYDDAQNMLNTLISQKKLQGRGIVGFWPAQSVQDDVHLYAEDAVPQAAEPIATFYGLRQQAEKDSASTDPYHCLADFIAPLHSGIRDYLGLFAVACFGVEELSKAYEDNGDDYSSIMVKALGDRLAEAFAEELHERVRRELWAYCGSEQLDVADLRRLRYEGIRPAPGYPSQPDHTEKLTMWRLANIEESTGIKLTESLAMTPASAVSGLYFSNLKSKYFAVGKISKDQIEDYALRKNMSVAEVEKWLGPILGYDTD

SK-HEP-1 cells [5] = assay: Protection of endothelial cells from H2O2-induced cell death (MTS assay); format: cell-based, Human; settings: 2 hours pre-incubation, then 25 μM H2O2 24 hours
Experimental: The effect of increasing concentrations of NACCbl and GSCbl to protect endothelial cells from the effect of H2O2 was assessed. […] Cell viability was determined by MTS® assay. […] Cell viability was determined by MTS® assay. […] Cell viability was determined by MTS® assay.

SK-HEP-1 cells [6] = assay: Effect of high concentrations of NACCbl and GSCbl on SK-HEP-1 cells (MTS assay); format: cell-based, Human; set-up: cell viability (MTS), raw readings (FIG. 13): reference not given here; settings: 24 hours; for cell viability (MTS), raw readings (FIG. 13): 3 replicates
[7] = Decomposition of thiolatocobalamins in PBS at 37° C. monitored by UV/Vis spectrophotometry; format: physicochemical; settings: decomposition in PBS at 37° C.
Experimental: The decomposition of GSCbl, NACCbl, and HcyCbl in PBS at 37° C. was monitored by UV/Vis spectrophotometry.

Structure (SMILES): NC(CCS)C(=O)O (racemic) [Homocysteine, DL-Homocysteine]
- effect on Hsp70 gene expression (Hsp70): increase in expression
- cell viability (MTS), raw readings (FIG. 11) (SK-HEP-1 cells [1]; Hcy 25 (μM) two hours): 0.74
- cell viability (MTS), raw readings (FIG. 11) (SK-HEP-1 cells [1]; Hcy 50 (μM) two hours): 0.77
- cell viability (MTS), raw readings (FIG. 11) (SK-HEP-1 cells [1]; Hcy 100 (μM) two hours): 0.51
- cell viability (MTS), raw readings (FIG. 11) (SK-HEP-1 cells [1]; Hcy 200 (μM) two hours): 0.33 and 0.39
- effect on Hsp32 gene expression (Hsp32): increase in expression
- concentration achieving greater than 90% death (SK-HEP-1 cells [2]): 25 µM
- concentration that killed cells (p<0.001) (SK-HEP-1 cells [2]): ≥ 5 µM
- Absorbance at 490 nm, Mean (n = 6) (SK-HEP-1 cells [3]; Conc. Hcy 200.000 (μM), NACCbl 30 μM, NAC 75 μM): 0.360
- normalized cell viability (MTS), percent, mean of 6 (SK-HEP-1 cells [3]; Conc. Hcy 200.000, NACCbl 30 μM, NAC 75 μM): −0.033
- Absorbance at 490 nm (n = 6) (SK-HEP-1 cells [3]; Conc. of Hcy 25.000, NACCbl 30 μM, NAC 75 μM): 0.740
- Absorbance at 490 nm (n = 6) (SK-HEP-1 cells [3]; Conc. of Hcy 50.000, NACCbl 30 μM, NAC 75 μM): 0.770
- Absorbance at 490 nm (n = 6) (SK-HEP-1 cells [3]; Conc. of Hcy 100.000, NACCbl 30 μM, NAC 75 μM): 0.510
- Absorbance at 490 nm (n = 6) (SK-HEP-1 cells [3]; Conc. of Hcy 200.000, NACCbl 30 μM, NAC 75 μM): 0.330 and 0.390

Structure (SMILES): CN1c2c(nc(N)[nH]c2=O)NC[C@@H]1CNc1ccc(C(=O)N[C@@H](CCC(=O)O)C(=O)O)cc1 [folate, 5-Methyltetrahydrofolic acid disodium salt]
- effect on Hsp70 gene expression (Hsp70): increase in expression
- effect on Hsp32 gene expression (Hsp32): increase in expression
- protection against apoptosis induced by homocysteine (SK-HEP-1 cells [4]): partial protection

Structure (SMILES): CC(=O)N[C@@H](CS)C(=O)O [NAC, N-Acetyl-L-Cysteine, reference compound]
- Absorbance at 490 nm, Mean (n = 6) (SK-HEP-1 cells [3]; Conc. Hcy 3.125 (μM), NACCbl 30 μM, NAC 75 μM): 1.897

Structure (SMILES): O.O.O=c1c(O)c(-c2ccc(O)c(O)c2)oc2cc(O)cc(O)c12 [Quercitin, 2-(3,4-Dihydroxyphenyl)-3,5,7-trihydroxy-4H-1-benzopyran-4-one dihydrate]
- effect on Hsp70 gene expression (Hsp70): inhibits Hsp70 gene expression
- effect on Hsp32 gene expression (Hsp32): does not inhibit Hsp32 gene expression

Structure (SMILES): OO [H2O2, Hydrogen peroxide]
- concentration achieving greater than 90% death (SK-HEP-1 cells [2]): 12.5 µM
- concentration sufficient to kill cultured endothelial cells (P<0.001) (SK-HEP-1 cells [2]): ≥ 3 μm

Structure (SMILES): C=CC1=C(C)c2cc3[n-]c(cc4[n-]c(cc5nc(cc1n2)C(C)=C5C=C)c(C)c4CCC(=O)O)c(CCC(=O)O)c3C.[Cl-].[Cl-].[Sn+4] [Sn (IX) protoporphyrin, 8,13-Bis(vinyl)-3,7,12,17-tetramethyl-21H,23H-porphine-2,18dipropionic acid tin(IV) dichloride]
- effect on Hsp32 gene expression (Hsp32): inhibited

Structure (SMILES): C/C1=C2N=C(/C=C3N=C(/C(C)=C4\[N-]C(C(CC(N)=O)C4(C)CCC(=O)NCC(C)OP(=O)([O-])OC4C(CO)OC(n5cnc6cc(C)c(C)cc65)C4O)C4(C)N=C1C(CCC(N)=O)C4(C)CC(N)=O)C(CCC(N)=O)C\3(C)C)C(CCC(N)=O)C/2(C)CC(N)=O.NC(CCC(=O)NC(C[S-])C(=O)NCC(=O)O)C(=O)O.[Co+3] (stereo not drawn) [GSCbl, Glutathionylcobalamin, reference compound]
- promotion of methionine synthase activity (methionine synthase): more active than other cobalamins in promoting methionine synthase activity
- concentration required to achieve >80% survival (SK-HEP-1 cells [5]): 100 µM
- effect on Hsp32 gene expression (Hsp32): induce Hsp32
- cell death compared with NACCbl (SK-HEP-1 cells [6]; above 0.2 mM concentration): caused greater cell death than NACCbl
- cell viability (MTS), raw readings (FIG. 13) (SK-HEP-1 cells [6]; compound conc. 0.61 (μM scale)): 2.554 and 2.376 and 2.53
- cell viability (MTS), raw readings (FIG. 13) (SK-HEP-1 cells [6]; compound conc. 1.22 (μM scale)): 2.347 and 2.433 and 2.503
- cell viability (MTS), raw readings (FIG. 13) (SK-HEP-1 cells [6]; compound conc. 2.441 (μM scale)): 2.527 and 2.434 and 2.46
- cell viability (MTS), raw readings (FIG. 13) (SK-HEP-1 cells [6]; compound conc. 4.882 (μM scale)): 2.543 and 2.528 and 2.519
- cell viability (MTS), raw readings (FIG. 13) (SK-HEP-1 cells [6]; compound conc. 9.765 (μM scale)): 2.532 and 2.476 and 2.42
- cell viability (MTS), raw readings (FIG. 13) (SK-HEP-1 cells [6]; compound conc. 19.531 (μM scale)): 2.553 and 2.476 and 2.42
- cell viability (MTS), raw readings (FIG. 13) (SK-HEP-1 cells [6]; compound conc. 39.062 (μM scale)): 2.492 and 2.484 and 2.468
- cell viability (MTS), raw readings (FIG. 13) (SK-HEP-1 cells [6]; compound conc. 78.125 (μM scale)): 2.444 and 2.406 and 2.402
- cell viability (MTS), raw readings (FIG. 13) (SK-HEP-1 cells [6]; compound conc. 156.25 (μM scale)): 2.407 and 2.37 and 2.318
- cell viability (MTS), raw readings (FIG. 13) (SK-HEP-1 cells [6]; compound conc. 312.5 (μM scale)): 2.306 and 2.204 and 2.138
- cell viability (MTS), raw readings (FIG. 13) (SK-HEP-1 cells [6]; compound conc. 625 (μM scale)): 2.197 and 1.912 and 1.787
- cell viability (MTS), raw readings (FIG. 13) (SK-HEP-1 cells [6]; compound conc. 1250 (μM scale)): 1.973 and 1.846 and 1.71
- cell viability (MTS), raw readings (FIG. 13) (SK-HEP-1 cells [6]; compound conc. 2500 (μM scale)): 1.775 and 1.81 and 1.896
- cell viability (MTS), raw readings (FIG. 13) (SK-HEP-1 cells [6]; compound conc. 5000 (μM scale)): 1.728 and 1.67 and 1.623
- cell viability (MTS), raw readings (FIG. 13) (SK-HEP-1 cells [6]; compound conc. 10000 (= 10 mM)): 1.322 and 1.342 and 1.366
- t1/2 [7]: No decomposition within 20 hours
- protection against apoptosis induced by homocysteine (SK-HEP-1 cells [4]): total protection
- survival (SK-HEP-1 cells [3]; 30 μM cobalamin pre-incubation two hours, then 50 μM homocysteine two hours): ~60%
- concentration required for >80% survival protection (SK-HEP-1 cells [3]; 2 hours pre-incubation, then 30 μM homocysteine 24 hours): 50 µM
- protection against homocysteine-induced damage compared with free thiols (SK-HEP-1 cells [3]; Hcy 30 μM, NAC 45, GSH 100, NACCbl 12.5, GSCbl 15 μM, with or without folate 25 μM): superior to the free thiols

Structure (SMILES): CC1=C2N=C(C=C3N=C(C(C)=C4[N-]C(C(CC(N)=O)C4(C)CCC(=O)NCC(C)OP(=O)([O-])OC4C(CO)OC(n5cnc6cc(C)c(C)cc65)C4O)C4(C)N=C1C(CCC(N)=O)C4(C)CC(N)=O)C(CCC(N)=O)C3(C)C)C(CCC(N)=O)C2(C)CC(N)=O.NC(CC[S-])C(=O)O.[Co+3] [HcyCbl, D,L-homocysteinyl-cobalamin]
- t1/2 [7]: 6.6 h
